This assay addresses prostate-specific membrane antigen (PSMA) (Homo sapiens, UniProt Q04609). In words: HPLC-based inhibition assay of purified PSMA with PABGγG substrate. The class given is biochemical.

Results on one substance are retold here after PMC3410962 (2012).

Chain of prostate-specific membrane antigen (PSMA) (Q04609 whole entry): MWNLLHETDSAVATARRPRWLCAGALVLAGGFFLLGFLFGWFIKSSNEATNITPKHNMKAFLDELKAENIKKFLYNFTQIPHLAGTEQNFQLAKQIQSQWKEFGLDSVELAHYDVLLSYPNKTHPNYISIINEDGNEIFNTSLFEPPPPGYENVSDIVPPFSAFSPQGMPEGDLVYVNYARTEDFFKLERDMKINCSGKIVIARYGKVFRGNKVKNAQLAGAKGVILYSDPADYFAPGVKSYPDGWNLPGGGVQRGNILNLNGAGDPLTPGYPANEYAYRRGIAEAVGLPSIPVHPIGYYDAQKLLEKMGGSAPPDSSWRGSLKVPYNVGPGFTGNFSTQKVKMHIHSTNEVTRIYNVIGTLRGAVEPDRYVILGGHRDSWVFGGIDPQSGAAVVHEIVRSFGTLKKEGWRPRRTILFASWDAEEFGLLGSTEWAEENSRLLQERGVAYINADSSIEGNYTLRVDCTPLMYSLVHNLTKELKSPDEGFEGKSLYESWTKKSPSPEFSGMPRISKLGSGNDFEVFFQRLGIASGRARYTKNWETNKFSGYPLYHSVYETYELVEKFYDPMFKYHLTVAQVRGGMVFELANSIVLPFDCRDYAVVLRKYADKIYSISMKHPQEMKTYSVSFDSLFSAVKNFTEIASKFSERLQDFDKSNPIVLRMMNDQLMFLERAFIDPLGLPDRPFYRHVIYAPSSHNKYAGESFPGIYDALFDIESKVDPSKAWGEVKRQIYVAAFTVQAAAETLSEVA

The IC50 is the concentration that gives 50% inhibition. High values mean weaker potency in that assay, low ones greater potency in that assay. With biotin-PEG12-CTT-54, the IC50 worked out at 10 nM.
